Read-outs that look alike come from different tables or passages of the source.
Legend:
[1] = rat, in vivo
Protocol: (§1) Animals accessed feed and water ad libitum.
(§2) For mass spectrometry-based MxP™ Broad Profiling analyses samples were extracted by a proprietary method yielding a lipid and polar fraction which were used for GC-MS (gas chromatography-mass spectrometry) and LC-MS/MS (liquid chromatography-MS/MS) analyses, respectively. For GC-MS analytics the samples were sequentially derivatized before measurement and the non-polar fraction was treated with methanol under acidic conditions to yield the fatty acid methyl esters derived from both free fatty acids and hydrolyzed complex lipids. The non-polar and polar fractions were further derivatized before GC-MS analysis (Roessner et al., Technical advance: simultaneous analysis of metabolites in potato tuber by gas chromatography-mass spectrometry. Plant J. 2000; 23:131-42). In LC-MS/MS analysis a metanomics proprietary technology was applied which allows target and high sensitivity MRM (Multiple Reaction Monitoring) profiling in parallel to full scan analyses (patent WO2003073464). For LC-MS analysis, both fractions were reconstituted in appropriate solvent mixtures. HPLC (high-performance liquid chromatography) was performed on reversed phase separation columns. Data were normalized by the corresponding median of reference samples which derived from a pool formed from aliquots of all samples to account for inter- and intra-instrumental variation. Therefore, pool-normalized semi-quantitative metabolite data were obtained.

mouse/rat liver tissue = conditions: after administration of hepatotoxic doses of carbon tetrachloride; cited from earlier work
mouse liver tissue = conditions: cited from earlier work
[2] = Metabolite profiling of plasma (GC-MS and LC-MS/MS) of rats treated with APAP vs. vehicle; conditions: for plasma metabolite in treated (1250 mg/kg) vs. untreated animals: FIG. 1, rats, 1250 mg/kg APAP vs. vehicle, most obvious at 6 and 24 hours; for 1250 mg vs. 0 mg (6 h) Ratio / 1250 mg vs. 0 mg (3 d) Ratio / 1250 mg vs. 0 mg (7 d) Ratio: rat plasma metabolite level, treated with 1250 mg/kg APAP vs. untreated, ANOVA; for 1250 mg vs. 0 mg (3 d) Ratio: 3 days; for 1250 mg vs. 0 mg (7 d) Ratio: 7 days
Protocol: as §1, §2

## CC(=O)Nc1ccc(O)cc1 [APAP, N-(4-hydroxyphenyl)acetamide, reference compound]
[1]
  differences between the test and the control samples: no statistically significant differences

## NCCCCN [Putrescine, Butane-1,4-diamine]
[1]
  plasma metabolite in treated (1250 mg/kg) vs. untreated animals: increased
mouse/rat liver tissue
  putrescine in mouse/rat liver tissue: increased
Mouse liver tissue; 18 hours after administration of acetaminophen
  tissue levels of putrescine: Elevated
Mouse liver tissue; mouse liver tissue
  putrescine in mouse liver tissue after treatment with acetaminophen: increased
Mouse liver tissue; tissue samples obtained after 6 and 12 hours
  tissue levels of putrescine: no elevated putrescine levels

## NCCOP(=O)(O)O [O-Phosphoethanolamine, o-phosphoethanolamine]
[2]
  plasma metabolite in treated (1250 mg/kg) vs. untreated animals: increased
  1250 mg vs. 0 mg (6 h) Ratio: 1.52
  1250 mg vs. 0 mg (3 d) Ratio: 1.06
  1250 mg vs. 0 mg (7 d) Ratio: 1.07

## O[C@H]1[C@H](O)[C@@H](O)[C@H](O)[C@@H](O)[C@H]1O [myo-Inositol, lipid fraction, myo-inositol]
[2]
  plasma metabolite in treated (1250 mg/kg) vs. untreated animals: increased
  1250 mg vs. 0 mg (6 h) Ratio: 1.28
  1250 mg vs. 0 mg (3 d) Ratio: 1.04
  1250 mg vs. 0 mg (7 d) Ratio: 1.02

## Lysophosphatidylcholine (C18:1)
[2]
  plasma metabolite in treated (1250 mg/kg) vs. untreated animals: decreased
  1250 mg vs. 0 mg (6 h) Ratio: 0.95
  1250 mg vs. 0 mg (3 d) Ratio: 1.10
  1250 mg vs. 0 mg (7 d) Ratio: 1.02

From patent publication US20170176477A1 (Metanomics Health GmbH, priority 2012, published 2017)
